What was measured:
Format in all cases: in vivo
[1] = test system: transgenic maize plants (ALT-1, ALT-2 and ALT-3); test: Halosulfuron-methyl tolerance of maize plants; conditions: summary of Table 4
Experimental: Zm cytoplasmic ALT-1-02 maize plants, Zm chloroplastic ALT-1-02 maize plants, Zm cytoplasmic ALT-2-02 maize plants, Zm chloroplastic ALT-2-02 maize plants, Zm cytoplasmic ALT-3-02 maize plants, Zm chloroplastic ALT-3-02 maize plants and wild-type maize plants were respectively taken and sprayed with halosulfuron-methyl (36 g ai/ha, 4-fold field concentration) and a blank solvent (water). The damage degree caused by the herbicide was measured for each plant according to the plant growth status 3 days after spraying (3 DAT), 7 days after spraying (7 DAT), 14 days after spraying (14 DAT) and 21 days after spraying (21 DAT), respectively: considering a growth status equivalent to that of the untreated plants as having a damage degree of 0%; considering conditions of leaves being partially chlorotic and yellow but substantially not affecting the plant normal growth as having a damage degree of 50%; and considering the whole plant being purple and dying as having a damage degree of 100%. […]

[2] = test system: wild-type soybean plants (CK1); test: Halosulfuron-methyl tolerance of soybean plants (damage degree)
Source text: (§1) The herbicide tolerance effects of Gm cytoplasmic ALT-1-01 soybean plants, Gm chloroplastic ALT-1-01 soybean plants, Gm cytoplasmic ALT-2-01 soybean plants, Gm chloroplastic ALT-2-01 soybean plants, Gm cytoplasmic ALT-3-01 soybean plants, Gm chloroplastic ALT-3-01 soybean plants and wild-type soybean plants on halosulfuron-methyl were detected (at seedling stage), respectively.
Gm cytoplasmic ALT-1-01 soybean plants, Gm chloroplastic ALT-1-01 soybean plants, Gm cytoplasmic ALT-2-01 soybean plants, Gm chloroplastic ALT-2-01 soybean plants, Gm cytoplasmic ALT-3-01 soybean plants, Gm chloroplastic ALT-3-01 soybean plants and wild-type soybean plants were respectively taken and sprayed with halosulfuron-methyl ([…]) and a blank solvent (water). The damage degree caused by the herbicide was measured for each plant according to the leaf curl degree and the growth point damage degree 3 days after spraying (3 DAT), 7 days after spraying (7 DAT), 14 days after spraying (14 DAT) and 21 days after spraying (21 DAT), respectively: considering conditions of leaves being flat as the untreated plants and growth points being intact as having a damage degree of 0%; considering conditions of veins being locally browned, new leaves being malformed and plant growth being slow as having a damage degree of 50%; and considering conditions of veins being purple to whole plant being dead and growth points being browned and dry as having a damage degree of 100%. There were 2 strains in Gm cytoplasmic ALT-1-01 soybean plants in total (S1 and S2), 2 strains in Gm chloroplastic ALT-1-01 soybean plants in total (S3 and S4), 2 strains in Gm cytoplasmic ALT-2-01 soybean plants in total (S5 and S6), 2 strains in Gm chloroplastic ALT-2-01 soybean plants in total (S7 and S8), 2 strains in Gm cytoplasmic ALT-3-01 soybean plants in total (S9 and S10), 2 strains in Gm chloroplastic ALT-3-01 soybean plants in total (S11 and S12), and 1 strain in wild-type soybean plants (CK1) in total; and 10-15 plants were selected from each strain and tested.

[3] = test system: wild-type maize plants (CK2); test: Halosulfuron-methyl tolerance of maize plants (damage degree); parameters: Average damage % 3 DAT / Average damage % 7 DAT / Average damage % 14 DAT / Average damage % 21 DAT: dose or concentration left out as unconfirmed
Experimental: as §1, with “Zm” for “Gm”, “ALT-1-02 maize” for “ALT-1-01 soybean”, “ALT-2-02 maize” for “ALT-2-01 soybean”, “ALT-3-02 maize” for “ALT-3-01 soybean”, “maize” for “soybean”, “V3-V4” for “seedling”
[…] The damage degree caused by the herbicide was measured for each plant according to the plant growth status 3 days after spraying (3 DAT), 7 days after spraying (7 DAT), 14 days after spraying (14 DAT) and 21 days after spraying (21 DAT), respectively: considering a growth status equivalent to that of the untreated plants as having a damage degree of 0%; considering conditions of leaves being partially chlorotic and yellow but substantially not affecting the plant normal growth as having a damage degree of 50%; and considering the whole plant being purple and dying as having a damage degree of 100%. There were 2 strains in Zm cytoplasmic ALT-1-02 maize plants in total (S13 and S14), 2 strains in Zm chloroplastic ALT-1-02 maize plants in total (S15 and S16), 2 strains in Zm cytoplasmic ALT-2-02 maize plants in total (S17 and S18), 2 strains in Zm chloroplastic ALT-2-02 maize plants in total (S19 and S20), 2 strains in Zm cytoplasmic ALT-3-02 maize plants in total (S21 and S22), 2 strains in Zm chloroplastic ALT-3-02 maize plants in total (S23 and S24), and 1 strain in wild- type maize plants (CK2) in total; and 10-15 plants were selected from each strain and tested.

Q: What does the source list for `COC(=O)c1c(Cl)nn(C)c1S(=O)(=O)NC(=O)Nc1nc(OC)cc(OC)n1` [halosulfuron-methyl, 3-chlorine-5-(4,6-dimethoxypyrimidine-2-aminocarbonylaminosulphonyl)-1-methylpyrazole-4-carboxylic acid methyl ester]?
A: tolerance of the plants to the herbicide [1]: high level of halosulfuron-methyl herbicide tolerance; tolerance of the plants to the herbicide ([2]; 34 g ai/ha, summary of Table 3): not tolerant; Average damage % 3 DAT ([2]; strain CK1, 34 g ai/ha (Hal.), 3 days after spraying): 51%; Average damage % 7 DAT ([2]; strain CK1, 34 g ai/ha (Hal.), 7 days after spraying): 87%; Average damage % 14 DAT ([2]; strain CK1, 34 g ai/ha (Hal.), 14 days after spraying): 100%; Average damage % 21 DAT ([2]; strain CK1, 34 g ai/ha (Hal.), 21 days after spraying): 100%; damage to the plants ([3]; 36 g ai/ha, summary of Table 4): some slight damage; Average damage % 3 DAT ([3]; strain CK2, 3 days after spraying): 10%; Average damage % 7 DAT ([3]; strain CK2, 7 days after spraying): 20%; Average damage % 14 DAT ([3]; strain CK2, 14 days after spraying): 19%; Average damage % 21 DAT ([3]; strain CK2, 21 days after spraying): 18%
